One experiment relates to Saccharomyces cerevisiae. In words: Inhibition of bakers yeast alpha-glucosidase using p-nitrophenyl-(alpha-D-glucopyranoside) as substrate at 10 mg/ml preincubated for 10 mins before substrate addition by microplate reader.
The target in experiment [1] is Lysosomal alpha-glucosidase (Rattus norvegicus) (UniProt Q6P7A9). Kind of experiment: Inhibition of rat intestinal maltase using maltose as substrate at 10 mg/ml preincubated for 10 mins before substrate addition by glucose oxidase method.
In experiment [2] the target is Sucrase-isomaltase, intestinal (Rattus norvegicus) (UniProt P23739). In words: Inhibition of rat intestinal sucrase using sucrose as substrate at 10 mg/ml preincubated for 10 mins before substrate addition by glucose oxidase method.
For experiment [3], the target named is Lysosomal alpha-glucosidase (Rattus norvegicus) (UniProt Q6P7A9). The conditions noted are these: 0.1 to 1 mg/ml.
A short description of experiment [4]: Inhibition of bakers yeast alpha-glucosidase using p-nitrophenyl-(alpha-D-glucopyranoside) as substrate preincubated for 10 mins before substrate addition by microplate reader. Further details: species or system Saccharomyces cerevisiae.
Experiment [5] addresses Lysosomal alpha-glucosidase (Rattus norvegicus) (UniProt Q6P7A9). To be noted: 0.1 to 1 mg/ml. This is another data set of the same source.
Description: Non-competitive inhibition of rat intestinal maltase using maltose as substrate assessed as enzyme-substrate-inhibitor complex formation at 0.1 to 1 mg/ml by Lineweaver-Burk plot analysis
Experiment [6] shares this target. The conditions noted are these: 0.1 to 1 mg/ml. The source holds these as a separate data set.
Description: Mixed type inhibition of rat intestinal maltase using maltose as substrate at 0.1 to 1 mg/ml

Each structure is given as a SMILES string. Activity calls are given as the source filed them. The rule behind the calls is not given here.

Data on four compounds can be found in ChEMBL document CHEMBL2057111, “(+)-Pinoresinol is a putative hypoglycemic agent in defatted sesame (Sesamum indicum) seeds though inhibiting α-glucosidase” (Bioorg Med Chem Lett, 2012).

Chain of Lysosomal alpha-glucosidase (Rattus norvegicus) (Q6P7A9 whole entry): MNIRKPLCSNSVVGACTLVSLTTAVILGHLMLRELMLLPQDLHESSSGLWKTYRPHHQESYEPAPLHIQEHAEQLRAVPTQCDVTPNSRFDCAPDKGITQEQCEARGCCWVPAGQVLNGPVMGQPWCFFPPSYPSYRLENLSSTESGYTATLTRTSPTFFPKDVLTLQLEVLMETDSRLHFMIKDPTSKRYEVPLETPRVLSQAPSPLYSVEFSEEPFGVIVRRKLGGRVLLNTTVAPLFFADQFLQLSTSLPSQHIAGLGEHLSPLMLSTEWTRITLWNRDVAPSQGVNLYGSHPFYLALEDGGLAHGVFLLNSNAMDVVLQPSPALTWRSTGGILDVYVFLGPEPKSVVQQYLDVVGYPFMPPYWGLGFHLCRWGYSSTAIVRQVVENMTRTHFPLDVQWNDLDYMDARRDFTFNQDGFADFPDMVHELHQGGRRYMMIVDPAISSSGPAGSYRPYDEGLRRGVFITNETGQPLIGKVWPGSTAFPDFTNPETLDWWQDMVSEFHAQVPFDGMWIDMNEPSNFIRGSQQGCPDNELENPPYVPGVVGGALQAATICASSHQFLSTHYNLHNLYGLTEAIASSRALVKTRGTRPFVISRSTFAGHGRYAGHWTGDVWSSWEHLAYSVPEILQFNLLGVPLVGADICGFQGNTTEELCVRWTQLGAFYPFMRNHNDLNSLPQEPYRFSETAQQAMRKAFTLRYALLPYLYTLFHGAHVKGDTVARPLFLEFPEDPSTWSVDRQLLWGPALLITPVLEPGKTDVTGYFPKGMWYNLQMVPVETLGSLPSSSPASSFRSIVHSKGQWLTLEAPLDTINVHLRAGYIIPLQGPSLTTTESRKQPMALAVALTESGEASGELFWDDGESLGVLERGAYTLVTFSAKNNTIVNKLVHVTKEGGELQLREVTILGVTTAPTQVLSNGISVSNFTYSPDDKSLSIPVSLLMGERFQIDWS
Chain of Sucrase-isomaltase, intestinal (Rattus norvegicus) (P23739 1-1013 limits assumed): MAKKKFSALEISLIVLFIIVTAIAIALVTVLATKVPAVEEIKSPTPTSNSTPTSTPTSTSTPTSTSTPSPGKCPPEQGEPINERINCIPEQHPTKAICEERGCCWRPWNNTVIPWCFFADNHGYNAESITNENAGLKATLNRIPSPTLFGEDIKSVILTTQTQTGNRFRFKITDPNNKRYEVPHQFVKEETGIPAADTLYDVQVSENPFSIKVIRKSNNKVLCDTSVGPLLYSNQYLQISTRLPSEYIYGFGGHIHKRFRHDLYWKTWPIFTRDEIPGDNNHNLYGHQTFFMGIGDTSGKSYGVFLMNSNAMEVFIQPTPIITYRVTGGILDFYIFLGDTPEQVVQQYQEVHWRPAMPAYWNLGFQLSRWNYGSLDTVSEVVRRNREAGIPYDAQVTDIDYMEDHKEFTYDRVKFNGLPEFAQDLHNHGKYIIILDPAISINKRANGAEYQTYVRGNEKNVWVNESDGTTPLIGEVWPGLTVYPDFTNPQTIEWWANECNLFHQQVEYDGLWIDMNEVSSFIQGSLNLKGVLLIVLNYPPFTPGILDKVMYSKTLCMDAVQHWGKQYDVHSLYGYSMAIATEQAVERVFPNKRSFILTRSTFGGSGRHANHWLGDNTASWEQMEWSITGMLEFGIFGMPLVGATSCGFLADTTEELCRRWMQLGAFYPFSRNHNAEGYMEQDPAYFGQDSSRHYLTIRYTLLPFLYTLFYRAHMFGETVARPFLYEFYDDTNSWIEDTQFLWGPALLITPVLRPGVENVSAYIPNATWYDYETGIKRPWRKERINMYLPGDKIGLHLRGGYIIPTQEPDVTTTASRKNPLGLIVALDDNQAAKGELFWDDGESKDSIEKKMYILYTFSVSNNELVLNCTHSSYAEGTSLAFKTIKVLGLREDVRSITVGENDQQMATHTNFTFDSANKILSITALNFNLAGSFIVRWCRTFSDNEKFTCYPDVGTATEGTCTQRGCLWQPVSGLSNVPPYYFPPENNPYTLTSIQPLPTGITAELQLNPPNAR
Chain of Sucrase-isomaltase, intestinal (Rattus norvegicus) (P23739 1014-1841 limits assumed): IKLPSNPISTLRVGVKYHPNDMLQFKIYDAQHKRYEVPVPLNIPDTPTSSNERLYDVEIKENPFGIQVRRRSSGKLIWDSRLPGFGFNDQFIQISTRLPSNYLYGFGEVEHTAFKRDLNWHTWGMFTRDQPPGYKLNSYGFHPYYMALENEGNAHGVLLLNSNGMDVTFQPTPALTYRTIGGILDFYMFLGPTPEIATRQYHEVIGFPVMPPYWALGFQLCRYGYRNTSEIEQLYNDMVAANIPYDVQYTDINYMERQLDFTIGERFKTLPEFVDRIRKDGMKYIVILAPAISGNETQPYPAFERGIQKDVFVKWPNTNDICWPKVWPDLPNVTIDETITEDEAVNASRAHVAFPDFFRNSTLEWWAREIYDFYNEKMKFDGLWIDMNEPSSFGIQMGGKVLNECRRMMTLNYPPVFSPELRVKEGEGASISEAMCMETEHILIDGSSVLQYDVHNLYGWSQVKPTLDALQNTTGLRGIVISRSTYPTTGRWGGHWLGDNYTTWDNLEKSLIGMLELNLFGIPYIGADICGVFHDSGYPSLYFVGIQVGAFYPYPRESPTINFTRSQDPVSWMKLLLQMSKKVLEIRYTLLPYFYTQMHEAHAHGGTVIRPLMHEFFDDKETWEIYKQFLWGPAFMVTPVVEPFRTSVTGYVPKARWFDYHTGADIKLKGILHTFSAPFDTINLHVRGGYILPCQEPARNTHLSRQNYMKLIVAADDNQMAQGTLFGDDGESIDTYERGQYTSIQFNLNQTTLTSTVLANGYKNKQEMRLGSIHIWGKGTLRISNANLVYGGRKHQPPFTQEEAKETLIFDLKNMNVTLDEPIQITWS

As for `OC[C@H]1O[C@@H](Oc2cc3c(cc2[C@H]2OC[C@H]4[C@@H]2CO[C@@H]4c2ccc4c(c2)OCO4)OCO3)[C@H](O)[C@@H](O)[C@@H]1O`, the inhibition (in the experiment with Saccharomyces cerevisiae; in experiment [1]; in experiment [2]) was < 30% throughout.

Take `COc1cc([C@@H]2OC[C@@H]3[C@H]2CO[C@H]3c2ccc(O)c(OC)c2)ccc1O` [(+)-PINORESINOL]: the inhibition result in experiment [3], in experiment [5] and in experiment [6] was “Active” each time. The IC50 in experiment [4] stood at 492 µM. Moreover, the inhibition in experiment [2] was < 30%.

`c1cc2c(cc1[C@H]1OC[C@H]3[C@@H]1CO[C@@H]3c1ccc3c(c1)OCO3)OCO2` [SESAMIN]: the inhibition in experiment [1] and in experiment [2] was < 30% throughout. In addition, it took 450 µM to reach half-maximal inhibition in experiment [4] (IC50).

For the compound `c1cc2c(cc1O[C@H]1OC[C@H]3[C@@H]1CO[C@@H]3c1ccc3c(c1)OCO3)OCO2` [SESAMOLIN], the inhibition in experiment [1] and in experiment [2] was < 30% in each case. In experiment [4], this compound came in with an IC50 of 200 µM.

In general, inhibition refers to the share of the control response that was lost under treatment. One may read the IC50 as the concentration needed to halve the response being measured.
